Assay [1] in a line: Inhibition of Escherichia coli DdlB.
Assay [2] deals with Escherichia coli. Kind of assay: Antibacterial activity against Escherichia coli SM1411 after 16 hrs broth microdilution method. Format: functional. (In broth dilution the organism is exposed to a series of concentrations in liquid medium.)
Assay [3] deals with Staphylococcus aureus. Kind of assay: Antibacterial activity against Staphylococcus aureus 8325-4 after 16 hrs broth microdilution method. Particulars: 8325-4, 16 h. In kind it is functional.
Assay [4] deals with Escherichia coli. Kind of assay: Inhibition of Escherichia coli DdlB at 250 uM preincubated for 15 mins before substrate addition measured after 20 mins.
The subject of assay [5] is Escherichia coli. In words: Antibacterial activity against Escherichia coli 1411 after 16 hrs broth microdilution method. Format: functional.

Values after ≈ are worked out from the molar mass of the structure shown. Active and inactive are the calls of the source. The calls are words filed in the database; no cut-off is given here.

For `C[C@@H](N)C(=O)NP(=O)(O)O`, affinity in assay [1] was put at a Ki of 50 µM.

On to `C/C(O)=C(\C#N)C(=O)Nc1cc(Br)ccc1Br`, for which the Ki – broadly, a dissociation constant, usually derived from enzyme kinetics or from competition with a known ligand – in assay [1] is 185 µM.

In assay [1], `N[C@@H]1CONC1=O` [CYCLOSERINE] had a Ki of 22 µM.

In assay [1], `COc1ccc2nc3cc(Cl)ccc3c(Nc3ccc(O)c(CN4CCN(C)CC4)c3)c2c1` registered a Ki of 218 µM. The MIC – broadly, the lowest concentration found to suppress growth – in assay [2] is 64 µg/mL (≈ 138 µM); in assay [3], 32 µg/mL (≈ 69.1 µM). The outcome in assay [4] was Active.

The compound `N[C@@H](C[C@H]1C[C@]1(C(=O)O)c1ccccc1)C(=O)O` had a Ki in assay [1] of 12.5 µM.

Compound `CS[C@@H](CP(=O)(O)[C@@H](C)N)C(=O)O` showed a Ki in assay [1] of 4 µM.

In the case of `O=C(/N=N/C(=O)Nc1ccc(Cl)cc1)NCc1cccnc1`, the Ki in assay [1] is 33 µM.

In assay [1], `COc1ccc2c(c1)c1c(C)c3cnccc3c(C)c1n2CCCN` displayed a Ki of 11 µM. In addition, the minimal inhibitory concentration (MIC) in assay [2] was found to be 8 µg/mL (≈ 24 µM); in assay [3] it was 32 µg/mL (≈ 96 µM); in assay [5] it was 32 µg/mL (≈ 96 µM). Besides, the result in assay [4] was Active.

In the case of `CC(C)(CCl)C(=O)Nc1ccc(C(F)(F)F)cc1`, the Ki in assay [1] worked out at 4 µM.

These data come from ChEMBL document CHEMBL1140843, “Discovery of new inhibitors of D-alanine:D-alanine ligase by structure-based virtual screening” (J Med Chem, 2008).
